Paper PMC6941952, “A homogeneous bioluminescent immunoassay to probe cellular signaling pathway regulation” (Communications Biology, 2020)
“And” between values parts separate entries of the source, which are not always exact repeats. Identical values can stand only once.

Assays:
total IκBα = experiment: NanoBiT cell-based immunoassay, total IκBα in human breast tumor epithelial cells; conditions: for Total IkB Average / Total IkB Raw data / Total IkB Subtract reagent background: Breast Tumor Cells; for Total IkB Average: background subtracted; for Total IkB Raw data / Total IkB Subtract reagent background: listed as TNF; for IkB degradation (% compared to no IKK16), Average / IkB degradation (% compared to no IKK16) / Non-Treated/Treated / Raw data / Subtract reagent background: Breast tumor cells, TNF; for IkB degradation (% compared to no IKK16), Average: average of replicates; for IkB degradation (% compared to no IKK16) / Non-Treated/Treated / Raw data / Subtract reagent background: single replicates
Procedure: All cell lines used are from ATCC. […] Human Primary Mammary Epithelial Cells (#H-6035), Human Breast Tumor Epithelial Cells (#HC-6035), Complete Human Epithelial Cell Medium (#H6621), and Gelatin-Based Coating Solution (#H6950) were purchased from Cell Biologics. The cells were cultured according to the manufacturer’s procedure. All cells were grown at 37 °C in a 5% CO2 humidified incubator and passaged before reaching 80% cell confluency. Prior to each experiment, cells were counted by combining 30 µl of cell suspension with 30 µl of trypan blue. After gentle pipetting up and down to mix the cells and the dye, the cell number was determined using Bio-Rad TC 20 cell counter.
(§1) Prior to NanoBiT Cell-Based Immunoassay, 50,000 cells were seeded in 160 µl of complete growth media per well of a 96-well plate and incubated overnight. The cells were checked under microscope and it was determined that 50,000 cells per well in 96-well plate is under 90% confluency for all cells tested. If necessary, the cell culture media were replaced with serum-free media after the cells were stably adherent on the plate and incubated overnight. To treat cells with activators or inhibitors, medium was changed to 30 µl of medium containing inhibitors. If activation of a specific pathway is needed, the cells were stimulated with 10 µl of medium containing activators. To lyse the cells, 10 µl of lysis buffer containing 0.1% digitonin diluted in 1X immunoassay buffer with protease and phosphatase inhibitors was added and the plates were mixed vigorously for 20 min. Then, 50 µl of an antibody mix containing two primary antibodies against the target protein and NanoBiT detecting antibodies (0.3 µl each per well), diluted in 1X immunoassay buffer was added to the lysates. The plates were incubated at 23 °C for 90 min, followed by the addition of 25 µl of Nano-Glo® reagent consisting of Nano-Glo® Luciferase Assay Substrate mixed with 1X immunoassay buffer. Luminescence was measured using a plate-reading luminometer.
(§2) Single dose or dose response inhibitor treatments were performed prior to activation of the pathways as follows. For IκBα, the cells were treated in 30 µl medium with IKK16 or MG132 for 60 min before the addition of 10 µl of DMEM containing appropriate concentration of TNFα. To measure phosphorylation of AKT or STAT3, the corresponding NanoBiT immunoassays were developed with MCF-7 or A431 cells, respectively, according the same scheme used to develop the IκBα assay using the primary antibodies for AKT and STAT3 described in the reagents section. For the AKT assay, MCF-7 cells were incubated overnight in phenol-red free DMEM medium (Gibco #21063-029) without serum. Treatment with LY294002 was performed in 30 µl medium and cells were incubated for 60 min before the addition of 1 µM Insulin. To measure STAT3 phosphorylation, A431 cells were incubated overnight in DMEM medium without serum. […] After addition of the stimulators, the cells were incubated for additional times as follows. IκBα phosphorylation and degradation analyses required both time courses and single time points as described in figures. […] The NanoBiT immunoassay protocol was followed as described above.
(§3) All 96-well assay plates were read using a GloMax® 96 Microplate Luminometer from Promega. The instrument was set to 0.5 s integration time. In order to obtain net change of signal, the reagent background values (signal from the well containing all reagent except primary antibodies) were subtracted from the sample values. To plot and analyze the data, Microsoft Excel and GraphPad Prism® Software were used. IC50 values were determined by using a nonlinear regression fit to a sigmoidal dose response (variable slope).

NF-κB p65 Phospho-Ser536 = experiment: NanoBiT cell-based immunoassay, phosphorylated p65 in MCF-7 cells; design: species or system human; conditions: for P-p65, Average: background subtracted, average of replicates; for P-p65, Raw data / P-p65, Subtract reagent background: single replicates
Procedure: as §1, §2, §3

total NF-κB p65 = experiment: NanoBiT cell-based immunoassay, total p65 in MCF-7 cells; design: species or system human; conditions: for level of p65: MCF-7 cells, TNFα 50 ng per ml 10 min, IKK16 10 µM 1 h; for Total p65, Average: background subtracted, average of replicates; for Total p65, Raw data / Total p65, Subtract reagent background: single replicates
Procedure: as §1, §2, §3

## TNFα
Total IκBα; TNF 2 min
  Total IkB Average: 21090
  Total IkB Raw data: 27000 and 28670 and 28950
  Total IkB Subtract reagent background: 21553 and 21833 and 19883
Total IκBα; TNF 4 min
  Total IkB Average: 18310
  Total IkB Raw data: 25000 and 25490 and 25790
  Total IkB Subtract reagent background: 18373 and 18673 and 17883
Total IκBα; TNF 6 min
  Total IkB Average: 13990
  Total IkB Raw data: 22120 and 20820 and 20380
  Total IkB Subtract reagent background: 13703 and 13263 and 15003
Total IκBα; TNF 8 min
  Total IkB Average: 8950
  Total IkB Raw data: 16890 and 15660 and 15650
  Total IkB Subtract reagent background: 8543 and 8533 and 9773
Total IκBα; TNF 10 min
  Total IkB Average: 6003
  Total IkB Raw data: 13590 and 12910 and 12860
  Total IkB Subtract reagent background: 5793 and 5743 and 6473
Total IκBα; TNF 12 min
  Total IkB Average: 3767
  Total IkB Raw data: 11390 and 10770 and 10490
  Total IkB Subtract reagent background: 3653 and 3373 and 4273
Total IκBα; TNF 15 min
  Total IkB Average: 2118
  Total IkB Raw data: 9632 and 9015 and 9057
  Total IkB Subtract reagent background: 1898 and 1940 and 2515
Total IκBα; TNF 30 min
  Total IkB Average: 1696
  Total IkB Raw data: 8893 and 8691 and 8853
  Total IkB Subtract reagent background: 1574 and 1736 and 1776
Total IκBα; TNF 45 min
  Total IkB Average: 4853
  Total IkB Raw data: 11970 and 11880 and 12060
  Total IkB Subtract reagent background: 4763 and 4943 and 4853
Total IκBα; TNF 60 min
  Total IkB Average: 8867
  Total IkB Raw data: 15500 and 15850 and 16600
  Total IkB Subtract reagent background: 8733 and 9483 and 8383
NF-κB p65 Phospho-Ser536; substance alone
  P-p65, Average: 154463
NF-κB p65 Phospho-Ser536; substance alone, listed as TNF
  P-p65, Raw data: 167400 and 177100 and 183300
  P-p65, Subtract reagent background: 145930 and 155630 and 161830
Total NF-κB p65
  level of p65: not affected
Total NF-κB p65; substance alone
  Total p65, Average: 887990
Total NF-κB p65; substance alone, listed as TNF
  Total p65, Raw data: 913100 and 869100 and 947500
  Total p65, Subtract reagent background: 925590 and 891190 and 847190

## O=C(c1ccc(Nc2nccc(-c3cc4ccccc4s3)n2)cc1)N1CCC(N2CCCC2)CC1 [IKK16]
Total IκBα; IKK16 0.000762939 uM
  IkB degradation (% compared to no IKK16), Average: 97.6%
  IkB degradation (% compared to no IKK16): 92% and 104% and 97%
  Non-Treated/Treated: 3.423 and 4.061 and 3.878
  Raw data: 10940 and 10560 and 10750
  Subtract reagent background: 5493 and 5113 and 5303
Total IκBα; IKK16 0.00305176 uM
  IkB degradation (% compared to no IKK16), Average: 98.3%
  IkB degradation (% compared to no IKK16): 97% and 96% and 102%
  Non-Treated/Treated: 3.600 and 3.739 and 4.102
  Raw data: 10670 and 11000 and 10460
  Subtract reagent background: 5223 and 5553 and 5013
Total IκBα; IKK16 0.012207 uM
  IkB degradation (% compared to no IKK16), Average: 95.1%
  IkB degradation (% compared to no IKK16): 98% and 99% and 88%
  Non-Treated/Treated: 3.656 and 3.857 and 3.531
  Raw data: 10590 and 10830 and 11270
  Subtract reagent background: 5143 and 5383 and 5823
Total IκBα; IKK16 0.0488281 uM
  IkB degradation (% compared to no IKK16), Average: 99.5%
  IkB degradation (% compared to no IKK16): 95% and 97% and 106%
  Non-Treated/Treated: 3.552 and 3.780 and 4.255
  Raw data: 10740 and 10940 and 10280
  Subtract reagent background: 5293 and 5493 and 4833
Total IκBα; IKK16 0.195312 uM
  IkB degradation (% compared to no IKK16), Average: 94.6%
  IkB degradation (% compared to no IKK16): 95% and 102% and 87%
  Non-Treated/Treated: 3.532 and 3.953 and 3.507
  Raw data: 10770 and 10700 and 11310
  Subtract reagent background: 5323 and 5253 and 5863
Total IκBα; IKK16 0.78125 uM
  IkB degradation (% compared to no IKK16), Average: 86.9%
  IkB degradation (% compared to no IKK16): 77% and 92% and 91%
  Non-Treated/Treated: 2.883 and 3.584 and 3.657
  Raw data: 11970 and 11240 and 11070
  Subtract reagent background: 6523 and 5793 and 5623
Total IκBα; IKK16 3.125 uM
  IkB degradation (% compared to no IKK16), Average: 49.5%
  IkB degradation (% compared to no IKK16): 48% and 52% and 49%
  Non-Treated/Treated: 1.799 and 2.002 and 1.952
  Raw data: 15900 and 15820 and 15980
  Subtract reagent background: 10453 and 10373 and 10533
Total IκBα; human primary breast tumor epithelial cells, pretreated 1 h, then TNFα 50 ng per ml 30 min, read-out: IC50, inhibition of TNFα induced degradation of IκBα
  IC50: 1.82 µM
NF-κB p65 Phospho-Ser536; MCF-7 cells, 10 µM 1 h, TNFα 50 ng per ml 10 min
  TNFα-increased phosphorylation of p65 on serine 536: inhibited
NF-κB p65 Phospho-Ser536; TNF + Ikk16
  P-p65, Average: 4467
  P-p65, Raw data: 22920 and 23320 and 23680
  P-p65, Subtract reagent background: 4080 and 4480 and 4840
NF-κB p65 Phospho-Ser536; substance alone
  P-p65, Average: 3920
  P-p65, Raw data: 22430 and 21780 and 21730
  P-p65, Subtract reagent background: 4370 and 3720 and 3670
Total NF-κB p65
  level of p65: not affected
Total NF-κB p65; TNF + Ikk16
  Total p65, Average: 726760
  Total p65, Raw data: 756500 and 718200 and 763300
  Total p65, Subtract reagent background: 744060 and 737260 and 698960
Total NF-κB p65; substance alone
  Total p65, Average: 788717
  Total p65, Raw data: 811900 and 763300 and 846900
  Total p65, Subtract reagent background: 828250 and 793250 and 744650
